MIC and anti-PRSP activity data for four molecules are collected here from patent US8053418B2, “Anti-penicillin resistant pneumococci agent and novel 16-membered macrolide derivative” (Microbial Chemistry Research Foundation, priority 2005, dated 2011).

SMILES strings stand for the structures. Values after ≈ are worked out from the molar mass of the structure shown. “Also recorded” adds a separate entry of the source. Some results are limits rather than exact numbers.

For orientation: MIC means the lowest concentration that inhibits growth of the organism.

Type in all cases: cell-based
The test system of assay [1] is Streptococcus pneumoniae IMC B-0919 (PRSP). The assay is described as follows: Antimicrobial activity test (MIC), clinical isolate IMC B-0919. The protocol: (§1) Using Streptococcus pneumoniae that include clinical isolates of PRSP, the antimicrobial activity of each of the prepared anti-PRSP agents was measured in accordance with the “determination method of minimum inhibitory concentration of drug against bacteria” of Japanese Society of Chemotherapy (for re-revised version, see Chemotherapy 29; 76, 1981).
(§2) 11 test strains of Streptococcus pneumoniae including IMC B-0919 are all clinical isolates, of which 2 strains, IMC B-0921 and IMC B-1229, are classified into penicillin susceptible Streptococcus pneumoniae (PSSP) and the remaining 9 strains are classified into penicillin-resistant Streptococcus pneumoniae (PRSP) (according to NCCLS standards).

The subject of assay [2] is Streptococcus pneumoniae IMC B-0920 (PRSP). The assay can be described thus: Antimicrobial activity test (MIC), clinical isolate IMC B-0920. The protocol: as §1, §2
Assay [3] concerns Streptococcus pneumoniae IMC B-0922 (PRSP). The assay is described as follows: Antimicrobial activity test (MIC), clinical isolate IMC B-0922. The procedure:
as §1, §2

Assay [4] has as its system Streptococcus pneumoniae IMC B-1231 (PRSP). The assay can be described thus: Antimicrobial activity test (MIC), clinical isolate IMC B-1231. The procedure:
as §1, §2

Assay [5] deals with Streptococcus pneumoniae IMC B-1232 (PRSP). The assay is described as follows: Antimicrobial activity test (MIC), clinical isolate IMC B-1232. The protocol: as §1, §2
Assay [6] has as its system Streptococcus pneumoniae IMC B-1233 (PRSP). The assay is described as follows: Antimicrobial activity test (MIC), clinical isolate IMC B-1233. The protocol: as §1, §2
For assay [7], the system named is Streptococcus pneumoniae IMC B-1234 (PRSP). The assay can be described thus: Antimicrobial activity test (MIC), clinical isolate IMC B-1234. The protocol:
as §1, §2

Assay [8] concerns Streptococcus pneumoniae IMC B-1235 (PRSP). The assay is described as follows: Antimicrobial activity test (MIC), clinical isolate IMC B-1235. The procedure: as §1, §2
Assay [9] relates to Streptococcus pneumoniae IMC B-1236 (PRSP). The assay is described as follows: Antimicrobial activity test (MIC), clinical isolate IMC B-1236. The procedure:
as §1, §2

Assay [10] concerns Streptococcus pneumoniae IMC B-0921 (PSSP). The assay can be described thus: Antimicrobial activity test (MIC), clinical isolate IMC B-0921. The procedure:
as §1, §2

Assay [11] deals with Streptococcus pneumoniae IMC B-1229 (PSSP). The assay can be described thus: Antimicrobial activity test (MIC), clinical isolate IMC B-1229. The procedure:
as §1, §2

Assay [12] has as its system penicillin-resistant Streptococcus pneumoniae (PRSP). The assay is described as follows: Anti-PRSP activity, overall statements on the clinical isolates. Particulars: statement in words. The procedure: as §1, §2
For the compounds of the present invention, MKT-1011, MKT-2003, MKT-3002 and MKT-3003, the antimicrobial activity was measured in the same way as in Experimental Example 1.

[13] abbreviates: PRSP clinical isolate IMC B-0919.
[14] abbreviates: PRSP clinical isolate IMC B-0920.
The mark [15] stands for this setting: PRSP clinical isolate IMC B-0922.
[16] abbreviates: PRSP clinical isolate IMC B-1231.
Setting [17] is: PRSP clinical isolate IMC B-1232.
Where [18] appears, read: PRSP clinical isolate IMC B-1233.
The mark [19] stands for this setting: PRSP clinical isolate IMC B-1234.
Setting [20] is: PRSP clinical isolate IMC B-1235.
Setting [21] is: PRSP clinical isolate IMC B-1236.
Where [22] appears, read: PSSP clinical isolate IMC B-0921.
[23] abbreviates: PSSP clinical isolate IMC B-1229.
The mark [24] stands for this setting: Streptococcus pneumoniae IMC B-0919, PRSP.
The mark [25] stands for this setting: Streptococcus pneumoniae IMC B-0920, PRSP.
The mark [26] stands for this setting: Streptococcus pneumoniae IMC B-0922, PRSP.
Where [27] appears, read: Streptococcus pneumoniae IMC B-1231, PRSP.
Where [28] appears, read: Streptococcus pneumoniae IMC B-1232, PRSP.
The mark [29] stands for this setting: Streptococcus pneumoniae IMC B-1233, PRSP.
[30] abbreviates: Streptococcus pneumoniae IMC B-1234, PRSP.
[31] abbreviates: Streptococcus pneumoniae IMC B-1235, PRSP.
Where [32] appears, read: Streptococcus pneumoniae IMC B-1236, PRSP.
Where [33] appears, read: Streptococcus pneumoniae IMC B-0921, PSSP.
Where [34] appears, read: Streptococcus pneumoniae IMC B-1229, PSSP.

Take `CCC1OC(=O)CCC(C)C(OC2OC(C)CC(N(C)C)C2O)C(CC=O)CC(C)C(=O)C=CC(C)=CC1COC(C)=O` (stereo not shown) [MKT-2002]: the MIC in assay [1] (setting [13]) was 0.1 µg/mL (≈ 0.165 µM); in assay [2] (setting [14]) it was 0.05 µg/mL (≈ 0.0823 µM); in assay [3] (setting [15]), 0.1 µg/mL (≈ 0.165 µM); in assay [4] (setting [16]) it was 0.39 µg/mL (≈ 0.642 µM); in [5] (setting [17]), 0.05 µg/mL (≈ 0.0823 µM); in assay [6] (setting [18]), 0.05 µg/mL (≈ 0.0823 µM). Further, the MIC in [7] (setting [19]) came to 0.1 µg/mL (≈ 0.165 µM); in assay [8] (setting [20]) it was 25 µg/mL (≈ 41.1 µM); in assay [9] (setting [21]) it was 12.5 µg/mL (≈ 20.6 µM); in assay [10] (setting [22]) it was 0.1 µg/mL (≈ 0.165 µM); in assay [11] (setting [23]) it was 0.1 µg/mL (≈ 0.165 µM). The anti-PRSP activity result in assay [12] is “high anti-PRSP activity”.
Consider `CCC1OC(=O)CCC(C)C(OC2OC(C)CC(N(C)C)C2O)C(CC=O)CC(C)C(=O)C=CC(C)=CC1CN(C)Cc1ccccc1` (stereo not shown) [MKT-3002], for which the MIC worked out at 0.1 µg/mL (≈ 0.149 µM) in assay [1] (setting [13]); 0.1 µg/mL (≈ 0.149 µM) in assay [1] (setting [24]); 0.2 µg/mL (≈ 0.299 µM) in assay [2] (setting [14]); 0.2 µg/mL (≈ 0.299 µM) in assay [2] (setting [25]); 0.1 µg/mL (≈ 0.149 µM) in assay [3] (setting [15]); 0.1 µg/mL (≈ 0.149 µM) in assay [3] (setting [26]). The MIC was 50 µg/mL (≈ 74.7 µM) in assay [4] (setting [16]); 50 µg/mL (≈ 74.7 µM) in [4] (setting [27]); less than 0.025 µg/mL in assay [5] (setting [17]); less than 0.025 µg/mL in assay [5] (setting [28]); 0.1 µg/mL (≈ 0.149 µM) in assay [6] (setting [18]); 0.1 µg/mL (≈ 0.149 µM) in assay [6] (setting [29]). Besides, the MIC was less than 0.1 µg/mL in assay [7] (setting [19]); less than 0.1 µg/mL in assay [7] (setting [30]); 3.13 µg/mL (≈ 4.68 µM) in [8] (setting [20]); 3.13 µg/mL (≈ 4.68 µM) in [8] (setting [31]); 3.13 µg/mL (≈ 4.68 µM) in assay [9] (setting [21]); 3.13 µg/mL (≈ 4.68 µM) in [9] (setting [32]). The MIC in [10] (setting [22]), in [10] (setting [33]), in assay [11] (setting [23]) and in [11] (setting [34]) was 0.1 µg/mL (≈ 0.149 µM) each time. The anti-PRSP activity entry in assay [12] was “high anti-PRSP activity”.
Take `CCC1OC(=O)CCC(C)C(OC2OC(C)CC(N(C)C)C2O)C(CC=O)CC(C)C(=O)C=CC(C)=CC1CSc1ccccn1` (stereo not shown) [MKT-3003]: the MIC in [1] (setting [13]), in assay [1] (setting [24]), in [2] (setting [14]), in assay [2] (setting [25]), in [3] (setting [15]) and in [3] (setting [26]) was less than 0.025 µg/mL throughout. The minimal inhibitory concentration (MIC) was 50 µg/mL (≈ 75.9 µM) in assay [4] (setting [16]); 50 µg/mL (≈ 75.9 µM) in assay [4] (setting [27]); less than 0.025 µg/mL in assay [5] (setting [17]); less than 0.025 µg/mL in [5] (setting [28]); less than 0.025 µg/mL in assay [6] (setting [18]); less than 0.025 µg/mL in assay [6] (setting [29]). Moreover, the MIC in assay [7] (setting [19]) is less than 0.025 µg/mL; in assay [7] (setting [30]), less than 0.025 µg/mL; in assay [8] (setting [20]) it was 1.56 µg/mL (≈ 2.37 µM); in [8] (setting [31]) it was 1.56 µg/mL (≈ 2.37 µM); in assay [9] (setting [21]), 1.56 µg/mL (≈ 2.37 µM); in assay [9] (setting [32]), 1.56 µg/mL (≈ 2.37 µM). Moreover, the MIC in assay [10] (setting [22]) is less than 0.025 µg/mL; in assay [10] (setting [33]) it was less than 0.025 µg/mL; in assay [11] (setting [23]) it was 0.1 µg/mL (≈ 0.152 µM); in [11] (setting [34]) it was 0.1 µg/mL (≈ 0.152 µM). The anti-PRSP activity result in [12] is reported as “high anti-PRSP activity; also recorded: inhibited the growth of PRSP at remarkably low concentrations”.
In the case of `CCC1OC(=O)CCC(C)C(OC2OC(C)CC(N(C)C)C2O)C(CC=O)CC(C)C(=O)C=CC(C)=CC1CNC(=O)c1ccccc1` (stereo not shown) [MKT-3202], the minimal inhibitory concentration (MIC) in assay [1] (setting [13]) was 0.2 µg/mL (≈ 0.299 µM); in [2] (setting [14]) it was 0.2 µg/mL (≈ 0.299 µM); in [3] (setting [15]), less than 0.025 µg/mL; in assay [4] (setting [16]) it was 0.05 µg/mL (≈ 0.0748 µM); in [5] (setting [17]) it was 0.1 µg/mL (≈ 0.15 µM); in assay [6] (setting [18]) it was less than 0.025 µg/mL. Besides, the MIC in assay [7] (setting [19]) is less than 0.025 µg/mL; in assay [8] (setting [20]), 0.1 µg/mL (≈ 0.15 µM); in assay [9] (setting [21]), 6.25 µg/mL (≈ 9.34 µM); in assay [10] (setting [22]) it was less than 0.025 µg/mL; in [11] (setting [23]), less than 0.025 µg/mL. Moreover, in [12], the anti-PRSP activity entry is recorded as “high anti-PRSP activity”.
